Results as given in patent US10780061B2, “Composition comprising farnesol and use thereof” (Daegu Gyongbuk Institute of Science and Technology, priority 2014, dated 2020).

Assays:
[1] = for reference; cited from earlier work
[2] = system: Myh2a-positive muscle fibers; assay: Myh2a immunostaining of hind limb muscles, high fat diet (PGC-1α-inhibited) model; type: in vivo, mouse; conditions: high fat diet with 0.5% compound, 3 months
Excerpt: (§1) To prepare the PGC-1α-inhibited model, 3-month-old mouse (female, body weight of 20 g) is fed with high fat diet, in which fat is increased to 60%, compared to a negative control group, for 5 days (short-term effect) or 3 months (long-term effect). The negative control group is fed with a general diet. Farnesol is mixed in the high fat diet at a content of 0.5% (weight of farnesol/weight of diet). A positive control group is fed with high fat diet containing a type II diabetes drug, metformin at a content of 0.5% (weight of metformin/weight of diet). Mice are fed with the general diet, the high fat diet, and the high fat diet containing farnesol or metformin for 3 months, and then hind limbs are removed to analyze muscle differentiation and mitochondrial enzyme activity.
In FIG. 6C, SD represents a standard diet as a negative control group, HFD represents a high fat diet, and HFD+Farnesol or HFD-metformin represents farnesol or metformin-added HFD, respectively.

PARIS, PGC-1α [3] = assay: Western blotting of hind limb muscles, high fat diet for 3 months; type: in vivo, mouse; conditions: high fat diet with 0.5% compound
Excerpt: as §1

SDH enzyme activity = assay: SDH staining of hind limb muscles, high fat diet model; type: in vivo, mouse; conditions: high fat diet with 0.5% compound, 3 months
Excerpt: as §1

PARIS, PGC-1α [4] = assay: Immunoprecipitation for PGC-1α expression and PARIS-farnesylation, short-term high fat diet; type: in vivo, mouse; conditions: high fat diet with 0.5% compound, 5 days, gastrocnemius muscles
Excerpt: as §1
The effects of high fat diet and farnesol and metformin on PGC-1α induction by PARIS-farnesylation are evaluated. To analyze effect of short-term high fat diet, mice are fed with the above conditions for 5 days. Immunoblotting of PGC-1α and PARIS in gastrocnemius muscles of the mice is performed.
In this regard, PARIS-farnesylation is normalized to the immunoprecipitated PARIS expression level.

SMILES | ID50 [1] | percentage of Myh2a-postive muscle fibers [2] | decreased PGC-1α expression by high fat diet (PARIS, PGC-1α [3]) | increased PARIS level by high fat diet (PARIS, PGC-1α [3]) | percentage of muscle fibers showing increased SDH enzyme activity (SDH enzyme activity) | reduction in PARIS-farnesylation by high fat diet (PARIS, PGC-1α [4]) | reduction in PGC-1α expression by high fat diet (PARIS, PGC-1α [4])
CC(=O)Oc1ccccc1C(=O)O [aspirin] | 250 mg/kg |  |  |  |  |  | 
CN(C)C(=N)N=C(N)N [metformin, reference compound] |  | significantly increases | inhibited | inhibited | increased | inhibited | inhibited
